Test results: US9861706B2, “GLP-1 receptor agonist peptide gastrin conjugates” (priority 2011, dated 2018)

Columns and labels:
[1] = system: db/db mice; experiment: Three weeks in vivo db/db mouse study
Description: Treatment Db/db mice were stratified to various treatment groups according to HbA1c levels. Mice were treated once daily with subcutaneous (SC) injections for a total of 21 days. Injection volume was 5 ml/kg. During the study body weights (BW) were recorded daily and used to administer the body weight-corrected doses of peptide. OGTT On day 16, an oral glucose tolerance test was performed in the animals. Blood glucose was measured before glucose (at t=0, baseline) and after glucose administration up to 2 hrs. Termination At termination the blood glucose levels were measured, and blood samples were analyzed for HbA1c levels. Measurements Whole blood glucose concentration (mM) was determined by the immobilized glucose oxidase method (Elite Autoanalyser, Bayer, Denmark). Blood samples were analyzed for HbA1c using the Cobas c111 analyzer (Roche Diagnostics, Mannheim, Germany).

[2] = Pharmacokinetics in mice after single subcutaneous dose; assay type: in vivo, C57BI L/6J mice; conditions: C57BL/6J, mouse, in vivo, sc, 100 nmol/kg
Description: At each time point, samples from two mice were taken. […] Plasma samples were analyzed after solid phase extraction (SPE) by liquid chromatography mass spectrometry (LC-MS/MS).

[3] = system: db/db mice; experiment: In vivo db/db mouse study: 4 weeks treatment followed by 2 weeks drug holiday
Description: (§1) Db/db mice were stratified to various treatment groups according to HbA1c levels. Mice were treated once daily with subcutaneous (SC) injections for a total of 4 weeks—thereafter they were dosed with vehicle for 2 weeks. Injection volume was 5 ml/kg. During the study body weights (BW) were recorded daily and used to administer the body weight-corrected doses of peptide.
After 3 and 5 weeks, an oral glucose tolerance test was performed in the animals. Blood glucose was measured before glucose (at t=0, baseline) and after glucose administration up to 2 hrs.
(§2) Whole blood glucose concentration (mM) was determined by the immobilized glucose oxidase method (Elite Autoanalyser, Bayer, Denmark).

[4] = system: ZDF rats; experiment: In vivo ZDF rat study: 6 weeks treatment
Description: as §1, with “ZDF rats” for “Db/db mice”, “Rats” for “Mice”, “twice” for “once”, “6” for “4 weeks—thereafter they were dosed with vehicle for 2”, “study,” for “study”
After 5 weeks, an oral glucose tolerance test was performed in the animals. Blood glucose was measured before glucose (at t=0, baseline) and after glucose administration up to 2 hrs.
At termination blood samples were analyzed for HbA1c levels.
as §2
Blood samples were analyzed for HbA1c using the Cobas c111 Analyzer (Roche Diagnostics, Mannheim, Germany).

[5] = SC 100 nmol/kg once daily, 21 days treatment

half-life [2]: 4.1 h
SMILES: CC[C@H](C)[C@H](NC(=O)[C@H](Cc1ccccc1)NC(=O)[C@H](CC(C)C)NC(=O)[C@H](CCCNC(=N)N)NC(=O)[C@@H](NC(=O)[C@H](C)NC(=O)[C@H](CCC(=O)O)NC(=O)[C@H](CCC(=O)O)NC(=O)[C@H](CCC(=O)O)NC(=O)[C@H](CC(C)C)NC(=O)[C@H](Cc1ccc(O)cc1)NC(=O)[C@H](CCCCN)NC(=O)[C@H](CO)NC(=O)[C@H](CC(C)C)NC(=O)[C@H](CCC(=O)O)NC(=O)[C@H](CO)NC(=O)[C@@H](NC(=O)[C@H](Cc1ccccc1)NC(=O)[C@@H](NC(=O)CNC(=O)[C@H](CCC(=O)O)NC(=O)CNC(=O)[C@@H](N)Cc1c[nH]cn1)[C@@H](C)O)[C@@H](C)O)C(C)C)C(=O)N[C@@H](CCC(=O)O)C(=O)N[C@@H](Cc1ccccc1)C(=O)N[C@@H](CC(C)C)C(=O)N[C@@H](CCCCN)C(=O)N[C@@H](CC(N)=O)C(=O)NCCOCCOCC(=O)NCCOCCOCC(=O)N[C@@H](Cc1ccc(O)cc1)C(=O)NCC(=O)N[C@@H](Cc1c[nH]c2ccccc12)C(=O)N[C@@H](CC(C)C)C(=O)N[C@@H](CC(=O)O)C(=O)N[C@@H](Cc1ccccc1)C(N)=O [Compound 18]
body weight gain (in words) ([1]; 3 week course of the study): lowered the body weight gain to a larger extent than Compound 23
Fasted BG level (mM) ([1]; SC 100 nmol/kg once daily, 16 days treatment): +++ ((+++) indicates fasted BG below 6 mM)
Delta-BW (g) [1, 5]: +++ ((+++) indicates delta BW below 4 g)
Delta-HbA1c (%) [1, 5]: +++ ((+++) indicates delta-HbA1c level below 0%)
OGTT, AUC (mM*min) ([1]; SC 100 nmol/kg once daily, after 16 days of treatment): +++ ((+++) indicates OGTT AUC below 1000 mM*min)
plasma levels of HbA1c (in words) ([1]; after 3 weeks treatment): lowered the plasma levels of HbA1c
fasting blood glucose levels (in words) ([1]; after 16 days treatment): lowered the fasted blood glucose levels to a larger extent than Compound 23
area under the glucose concentration curve (AUC) following an oral glucose challenge (in words) ([1]; day 16): lowered the glucose concentration to a larger extent than Compound 23
body weight gain (in words) ([3]; 4 week course of the study, FIG. 5): lowered the body weight to a larger extent than liraglutide at equimolar doses
OGTT glucose concentration curve (AUC) (in words) ([3]; after 3 weeks treatment, FIG. 3): lowered the glucose concentration curve (AUC) to a larger extent than did liraglutide
fasted blood glucose levels (in words) ([3]; after 4 weeks treatment followed by 1 week drug holiday, FIG. 2): lowered the fasted blood glucose levels to a larger extent than did liraglutide at equimolar doses
OGTT glucose concentration curve (AUC) (in words) ([3]; after 4 weeks treatment followed by 1 week drug holiday, FIG. 4): lowered the glucose concentration curve (AUC) to a larger extent than did liraglutide at equimolar doses
fasted blood glucose levels (in words) ([3]; once daily SC 30 and 100 nmol/kg/day, after 3 weeks treatment, FIG. 1): lowered the fasted blood glucose levels to a larger extent than liraglutide at equimolar doses
OGTT glucose concentration curve (AUC) (in words) ([4]; after 5 weeks treatment, FIG. 7): lowered the glucose concentration curve (AUC) to a larger extent than did liraglutide
HbA1c levels (in words) ([4]; after 6 weeks treatment, FIG. 8): lowered the HbA1c levels to a larger extent than did liraglutide at equimolar doses
fasting blood glucose levels (in words) ([4]; twice daily SC 2×10 and 2×40 nmol/kg/day, after 5 weeks treatment, FIG. 6): lowered the fasting blood glucose levels to a larger extent than did liraglutide at equimolar doses
